Reference: patent US8536167B2, “Methods for treating ophthalmic, otic, or nasal infections” (Alcon Research, Ltd., priority 2009, dated 2013)
Values after ≈ are worked out from the molar mass of the structure shown. Like-named read-outs stand apart in the source and are kept apart here.

Legend:
[1] = Ocular pharmacokinetic study following topical administration; assay type: in vivo, New Zealand white rabbits
Experimental: FIGS. 3 and 4 present the results of ocular pharmacokinetic studies following topical administration of finafloxacin and ciprofloxacin compositions. The studies utilized New Zealand white rabbits, and 45 μl of 0.3% test composition was instilled bilaterally.

[2] = system: Pseudomonas aeruginosa - Ciprofloxacin sensitive; test: In vitro antimicrobial susceptibility test (MIC50); assay type: cell-based
Experimental: (§1) A finafloxacin composition at pH 5.8 was compared to ciprofloxacin (pH 5.8) and ofloxacin (pH 5.8 and pH 7) compositions using standard in vitro antimicrobial susceptibility tests (M07-08 Methods for Dilution Antimicrobial Susceptibility Tests for Bacteria that Grow Aerobically; Approved Standard-Eighth Edition (January 2009, Clinical and Laboratory Standards Institute), herein incorporated by reference). Minimum inhibitory concentrations (MIC50) were determined using Gram-positive and Gram-negative test organisms commonly found in otic and ophthalmic infections. The MIC50 was the lowest concentration of antibiotic that prevented growth of the test organism, as determined visually by a lack of turbidity.
(§2) The results of the experiment are presented below in TABLE 1 (Gram-positive organisms) and TABLE 2 (Gram-negative organisms).

Streptococcus pneumonia = test: In vitro antimicrobial susceptibility test (MIC50); assay type: cell-based; conditions: Streptococcus pneumoniae, N = 10
Experimental: as §1, §2

[3] = system: Staphylococcus aureus - Ciprofloxacin sensitive; test: In vitro antimicrobial susceptibility test (MIC50); assay type: cell-based
Experimental: as §1, §2

Pseudomonas otitidis = test: In vitro antimicrobial susceptibility test (MIC50); assay type: cell-based; conditions: Metapseudomonas otitidis, N = 10
Experimental: as §1, §2

[4] = system: Staphylococcus epidermidis - Ciprofloxacin sensitive; test: In vitro antimicrobial susceptibility test (MIC50); assay type: cell-based
Experimental: as §1, §2

Enterococcus faecalis = test: In vitro antimicrobial susceptibility test (MIC50); assay type: cell-based
Experimental: as §1, §2

Haemophilia influenzae = test: In vitro antimicrobial susceptibility test (MIC50); assay type: cell-based; conditions: N = 10
Experimental: as §1, §2

Proteus mirabilis = test: In vitro antimicrobial susceptibility test (MIC50); assay type: cell-based
Experimental: as §1, §2

[5] = system: Pseudomonas aeruginosa - Ciprofloxacin resistant; test: In vitro antimicrobial susceptibility test (MIC50); assay type: cell-based
Experimental: as §1, §2

Escherichia coli = test: In vitro antimicrobial susceptibility test (MIC50); assay type: cell-based
Experimental: as §1, §2

[6] = system: Staphylococcus epidermidis - Ciprofloxacin resistant; test: In vitro antimicrobial susceptibility test (MIC50); assay type: cell-based
Experimental: as §1, §2

[7] = system: Staphylococcus aureus - Ciprofloxacin resistant; test: In vitro antimicrobial susceptibility test (MIC50); assay type: cell-based
Experimental: as §1, §2

Pseudomonas aeruginosa [8] = test: Guinea pig model of acute otitis externa (AOE); assay type: in vivo; conditions: for eradication of Pseudomonas: 0.3% composition
Experimental: Guinea pig ears were slightly abraded and 200 μl of bacterial culture (10^8 CFU) of P. aeruginosa were instilled into each ear. Ears were lavaged with saline and plated onto Pseudomonas isolation media. FIGS. 1a-1d summarize the results of these studies. […] Lower concentration finafloxacin compositions (0.03% and 0.003%) still achieved very substantial 5-6 log reductions of Pseudomonas in the model. […] Using a lower concentration composition (0.03%, shown in FIG. 1c) finafloxacin achieved a 4 log CFU reduction in the single dose study.

[9] = In vivo ototoxicity study, outer ear irritation; set-up: species or system Rabbit; conditions: 0.3% pH 5.7, 0.3%, 0.6%, 1.0% pH 7.5 (0.3% Mg and BAC), 0.2 mL bid for 7 days followed by 7 day observations
Source text: TABLE 3 below presents the results of toxicity testing performed in two animals models (chinchilla and rabbit).

[10] = Ex vivo corneal perfusion model; assay type: in vitro ADME; conditions: 0.1 mM test solutions at pH 7.3, ex vivo, FIG. 2
Experimental: FIG. 2 presents comparative corneal perfusion data for several quinolone antimicrobials (including finafloxacin) using an ex vivo model. 0.1 mM test solutions at pH 7.3 of four quinolone antimicrobials were compared in the model.

Pseudomonas aeruginosa [11] = test: Rabbit keratitis model (similar test); assay type: in vivo, New Zealand white rabbits; conditions: finafloxacin compositions compared to CILOXAN
[12] = at pH 5.8, N = 10, read-out: MIC50

Row | Structure (SMILES) | MIC50 ([2]; at pH 5.8, N = 14) | MIC50 (Streptococcus pneumonia; at pH 5.8) | MIC50 ([3]; at pH 5.8, N = 8) | MIC50 (Pseudomonas otitidis; at pH 5.8) | MIC50 ([4]; at pH 5.8, N = 8) | MIC50 (Enterococcus faecalis; at pH 5.8, N = 10) | MIC50 (Haemophilia influenzae; at pH 5.8) | MIC50 (Proteus mirabilis; [12]) | MIC50 ([5]; at pH 5.8, N = 11) | MIC50 (Escherichia coli; at pH 5.8, N = 10) | MIC50 ([6]; at pH 5.8, N = 12) | MIC50 ([7]; at pH 5.8, N = 12) | further results
1 | O=C(O)c1cn(C2CC2)c2cc(N3CCNCC3)c(F)cc2c1=O [Ciprofloxacin] | 1 µg/mL (≈ 3.02 µM) | 1 µg/mL (≈ 3.02 µM) | 1 µg/mL (≈ 3.02 µM) | 0.25 µg/mL (≈ 0.754 µM) | 0.5 µg/mL (≈ 1.51 µM) | 128 µg/mL (≈ 386 µM) | 0.016 µg/mL (≈ 0.0483 µM) | 0.125 µg/mL (≈ 0.377 µM) | 64 µg/mL (≈ 193 µM) | 256 µg/mL (≈ 773 µM) | 128 µg/mL (≈ 386 µM) | 128 µg/mL (≈ 386 µM) | corneal stroma tissue concentration ([1]; 45 μl of 0.3% test composition instilled bilaterally, topical, FIG. 3): greater concentrations immediately following instillation; aqueous humor tissue concentration ([1]; 45 μl of 0.3% test composition instilled bilaterally, topical, FIG. 4): greater concentrations immediately following instillation
2 | CC1COc2c(N3CCN(C)CC3)c(F)cc3c(=O)c(C(=O)O)cn1c23 (stereo not shown) [Ofloxacin] | 4 µg/mL (≈ 11.1 µM) | 2 µg/mL (≈ 5.53 µM) | 1 µg/mL (≈ 2.77 µM) | 1 µg/mL (≈ 2.77 µM) | 1 µg/mL (≈ 2.77 µM) | 16 µg/mL (≈ 44.3 µM) | 0.031 µg/mL (≈ 0.0858 µM) | 0.5 µg/mL (≈ 1.38 µM) | 256 µg/mL (≈ 708 µM) | 512 µg/mL (≈ 1420 µM) | 32 µg/mL (≈ 88.6 µM) | 64 µg/mL (≈ 177 µM) | MIC50 ([2]; at pH 7, N = 14): 2 µg/mL (≈ 5.53 µM); MIC50 (Streptococcus pneumonia; at pH 7): 1 µg/mL (≈ 2.77 µM); MIC50 ([3]; at pH 7, N = 8): 0.25 µg/mL (≈ 0.692 µM); MIC50 (Pseudomonas otitidis; at pH 7): 0.25 µg/mL (≈ 0.692 µM); MIC50 ([4]; at pH 7, N = 8): 0.25 µg/mL (≈ 0.692 µM); MIC50 (Enterococcus faecalis; at pH 7, N = 10): 128 µg/mL (≈ 354 µM); MIC50 (Haemophilia influenzae; at pH 7): 0.031 µg/mL (≈ 0.0858 µM); MIC50 (Proteus mirabilis; pH 7): 0.125 µg/mL (≈ 0.346 µM); MIC50 ([5]; at pH 7, N = 11): 64 µg/mL (≈ 177 µM); MIC50 (Escherichia coli; at pH 7, N = 10): 16 µg/mL (≈ 44.3 µM); MIC50 ([6]; at pH 7, N = 12): 16 µg/mL (≈ 44.3 µM); MIC50 ([7]; at pH 7, N = 12): 32 µg/mL (≈ 88.6 µM)
3 | N#Cc1c(N2C[C@@H]3NCCO[C@H]3C2)c(F)cc2c(=O)c(C(=O)O)cn(C3CC3)c12 [Finafloxacin, 8-cyano-1-cyclopropyl-6-fluoro-7-[(4aS,7aS)-hexahydropyrrolo[3,4-b]-1,4-oxazin-6(2H)-yl]-1,4-dihydro-4-oxo-3-quinolinecarboxylic acid] | 1 µg/mL (≈ 2.51 µM) | 0.25 µg/mL (≈ 0.628 µM) | 0.016 µg/mL (≈ 0.0402 µM) | 0.125 µg/mL (≈ 0.314 µM) | 0.016 µg/mL (≈ 0.0402 µM) | 8 µg/mL (≈ 20.1 µM) | 0.008 µg/mL (≈ 0.0201 µM) | 0.25 µg/mL (≈ 0.628 µM) | 16 µg/mL (≈ 40.2 µM) | 4 µg/mL (≈ 10 µM) | 2 µg/mL (≈ 5.02 µM) | 4 µg/mL (≈ 10 µM) | aqueous humor tissue concentration ([1]; rabbit, in vivo): comparable at later time points; corneal stroma tissue concentration ([1]; rabbit, in vivo): comparable at later time points; log reductions of Pseudomonas (Pseudomonas aeruginosa [8]; 0.003% composition, two doses, FIG. 1a): 5-6 log; effect of preservative (BAC) on efficacy against Pseudomonas (Pseudomonas aeruginosa [8]; 0.03% and 0.3% compositions with BAC compared to self-preserved compositions, FIG. 1d): does not affect the efficacy; CFU reduction (Pseudomonas aeruginosa [8]; 0.03% composition, single dose study, FIG. 1c): 4 log CFU; log reductions of Pseudomonas (Pseudomonas aeruginosa [8]; 0.03% composition, two doses, FIG. 1a): 5-6 log; performance compared to ciprofloxacin and ofloxacin compositions (Pseudomonas aeruginosa [8]; 0.03%, single dose study, FIG. 1c): performed as well as the ciprofloxacin composition and better than the ofloxacin composition; eradication of Pseudomonas (Pseudomonas aeruginosa [8]; single dose study, FIG. 1b): almost complete eradication of Pseudomonas; eradication of Pseudomonas (Pseudomonas aeruginosa [8]; two separate doses, FIG. 1a): almost complete eradication of Pseudomonas; performance compared to ciprofloxacin (Pseudomonas aeruginosa [8]; tests summarized in FIG. 1a, two doses): performed as well as ciprofloxacin; outer ear irritation [9]: No indications; outer ear irritation ([9]; listed as finafloxacin): did not demonstrate inner or outer ear irritation; corneal perfusion [10]: better corneal perfusion properties than the ciprofloxacin test composition and demonstrates less perfusion relative to the ofloxacin test composition; Pseudomonas CFU reductions (Pseudomonas aeruginosa [11]): inferior Pseudomonas CFU reductions compared to CILOXAN®
